These results are taken from ChEMBL document CHEMBL5608192, “Discovery and characterization of small-molecule TGR5 ligands with agonistic activity” (Eur J Med Chem, 2024).

Structures are written as SMILES.

A short description of assay [1]: Effect on CRE-luciferase activity in TGR5 non-expressing HEK293-A cells transfected with EPAC-based FRET biosensor assessed as fold activation at 30 uM incubated for 18 hrs by spectrophotometric analysis relative to control. It counts as functional, Homo sapiens.
The nature of assay [2]: Effect on cAMP accumulation in non-TGR5 expressing HEK293-A cells transfected with EPAC-based FRET biosensor at 30 uM incubated for 10 mins in presence of IBMX and roflumilast by fluorescence based photometry relative to control. It counts as functional, Homo sapiens. A general note: Changes in cAMP serve as a functional read-out for many G protein-coupled receptors.
The target in assay [3] is T1, G-protein coupled bile acid receptor 1 (Homo sapiens) (UniProt Q8TDU6).
T1 sequence (whole entry): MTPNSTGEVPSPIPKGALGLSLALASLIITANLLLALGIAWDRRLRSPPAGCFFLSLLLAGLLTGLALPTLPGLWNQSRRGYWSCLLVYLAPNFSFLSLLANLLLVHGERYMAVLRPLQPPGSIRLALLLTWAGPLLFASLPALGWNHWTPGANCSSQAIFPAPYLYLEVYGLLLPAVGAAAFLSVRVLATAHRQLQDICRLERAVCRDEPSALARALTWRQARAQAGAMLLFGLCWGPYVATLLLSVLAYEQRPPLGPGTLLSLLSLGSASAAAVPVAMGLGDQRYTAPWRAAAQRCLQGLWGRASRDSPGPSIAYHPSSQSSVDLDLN
Put plainly: (§1) Agonist activity at human TGR5 expressed in HEK293-A cells co-transfected with EPAC-based FRET biosensor incubated for 18 hrs by CRE-luciferase reporter gene assay. The settings on record: filed as agonist. It is filed as functional, cell-based.

The target in assay [4] is T2, G-protein coupled bile acid receptor 1 (Homo sapiens, UniProt Q8TDU6).
T2 sequence (Q8TDU6 whole entry): T1 sequence (whole entry)
The assay is described as §1. It is filed as functional, cell-based.

Assay [5] addresses T2, G-protein coupled bile acid receptor 1. Briefly: Agonist activity at human TGR5 expressed in HEK293-A cells co-transfected with EPAC-based FRET biosensor assessed as increase in cAMP accumulation incubated for 10 mins by spectrophotometry. It is filed as functional, cell-based.

As for `CO[C@@H](CNC(=O)CCc1cc2cc(Br)ccc2s1)Cc1ccccc1`, the “fold change (FC)” value in assay [1] turned out to be 0.75. The Activity was 106.4% in assay [2] and “Dose-Dependent Effect” in assay [3].
As to `c1ccc(-n2cccc2CNC2CCCN(C3Cc4ccccc4C3)C2)nc1` (stereo not drawn), the “fold change (FC)” value in assay [1] came out at 1.44. Besides, the Activity in assay [2] was found to be 104%.
For the compound `CC1(C)c2ccccc2CCN1CC(=O)NC[C@@H]1Cc2ccccc2O1`, in assay [1], the “fold change (FC)” value came out at 0.82. Moreover, the Activity in assay [2] is 103.7%; in assay [3] it was “Dose-Dependent Effect”. In addition, the EC50 in assay [4] was 19 µM; in assay [5], 30 µM.
As to `CC(C)c1ccccc1OCCC(=O)NC[C@@H]1Cc2ccccc21`, the “fold change (FC)” value in assay [1] came to 0.57. The Activity is 107.1% in assay [2] and “Dose-Dependent Effect” in assay [3].
On to `Cc1cc(S(=O)(=O)NCCn2ccnc2C2CC2)c(Cl)cc1Cl`, for which the “fold change (FC)” value in assay [1] was determined as 0.96. Further, the Activity in assay [2] worked out at 103.9%.
For `Cc1ccc(CCCNC(=O)NCc2cn3c(C)cccc3n2)c(C)c1`, the “fold change (FC)” value in assay [1] is 0.87.
With `c1cc(CNC2CC2)cc(-c2cccc3cccnc23)c1`, the “fold change (FC)” value in assay [1] is 1.22. Also, the Activity in assay [2] is 105.3%.

Usually EC50 stands for the concentration needed to bring the measured effect to its halfway point.
